Source: ChEMBL document CHEMBL6074676, “Optimization and Biological Evaluation of Novel 1H-Pyrrolo[2,3-c]pyridin Derivatives as Potent and Reversible Lysine Specific Demethylase 1 Inhibitors for the Treatment of Acute Myelogenous Leukemia” (J Med Chem, 2024)

Assays:
Cytochrome P450 2D6 = Cytochrome P450 2D6 (Homo sapiens, UniProt P10635); assay: Inhibition of CYP2D6 in human liver microsomes; assay type: ADME, Microsome
Cytochrome P450 2C9 = Cytochrome P450 2C9 (Homo sapiens, UniProt P11712); assay: Inhibition of CYP2C9 in human liver microsomes; assay type: ADME, Microsome
[1] = target: T1, Lysine-specific histone demethylase 2 (Homo sapiens, UniProt Q8NB78); assay: Inhibition of N-terminal GST-tagged recombinant full length human LSD2 expressed in Baculovirus using Bio- H3K4me2 (1 to 24 residues) as substrate incubated for 1 hr by TR-FRET assay
T1 sequence (Q8NB78 whole entry): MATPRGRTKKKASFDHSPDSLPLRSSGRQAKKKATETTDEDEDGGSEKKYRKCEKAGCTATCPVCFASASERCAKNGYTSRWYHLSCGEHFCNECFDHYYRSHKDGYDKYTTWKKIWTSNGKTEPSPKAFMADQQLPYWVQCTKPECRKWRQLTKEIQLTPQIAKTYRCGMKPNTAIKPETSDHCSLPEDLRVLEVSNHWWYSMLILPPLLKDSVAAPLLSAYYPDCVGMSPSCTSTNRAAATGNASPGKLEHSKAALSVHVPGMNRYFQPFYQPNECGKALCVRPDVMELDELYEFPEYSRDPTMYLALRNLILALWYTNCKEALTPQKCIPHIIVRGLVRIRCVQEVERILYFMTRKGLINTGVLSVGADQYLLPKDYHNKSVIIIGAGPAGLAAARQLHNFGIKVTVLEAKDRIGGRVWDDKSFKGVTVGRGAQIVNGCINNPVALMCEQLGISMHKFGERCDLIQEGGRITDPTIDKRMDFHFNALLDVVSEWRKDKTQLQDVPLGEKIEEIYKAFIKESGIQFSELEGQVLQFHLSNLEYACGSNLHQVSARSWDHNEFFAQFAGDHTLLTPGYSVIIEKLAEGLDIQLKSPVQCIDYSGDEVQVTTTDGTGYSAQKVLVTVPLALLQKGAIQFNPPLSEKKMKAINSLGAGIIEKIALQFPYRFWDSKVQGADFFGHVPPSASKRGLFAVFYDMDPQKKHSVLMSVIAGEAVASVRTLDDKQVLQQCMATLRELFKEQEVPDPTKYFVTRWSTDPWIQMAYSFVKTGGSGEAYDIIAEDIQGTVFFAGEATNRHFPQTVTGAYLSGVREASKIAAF

[2] = target: T2, Amine oxidase [flavin-containing] B (Homo sapiens, UniProt P27338); assay: biochemical
T2 sequence (P27338 whole entry): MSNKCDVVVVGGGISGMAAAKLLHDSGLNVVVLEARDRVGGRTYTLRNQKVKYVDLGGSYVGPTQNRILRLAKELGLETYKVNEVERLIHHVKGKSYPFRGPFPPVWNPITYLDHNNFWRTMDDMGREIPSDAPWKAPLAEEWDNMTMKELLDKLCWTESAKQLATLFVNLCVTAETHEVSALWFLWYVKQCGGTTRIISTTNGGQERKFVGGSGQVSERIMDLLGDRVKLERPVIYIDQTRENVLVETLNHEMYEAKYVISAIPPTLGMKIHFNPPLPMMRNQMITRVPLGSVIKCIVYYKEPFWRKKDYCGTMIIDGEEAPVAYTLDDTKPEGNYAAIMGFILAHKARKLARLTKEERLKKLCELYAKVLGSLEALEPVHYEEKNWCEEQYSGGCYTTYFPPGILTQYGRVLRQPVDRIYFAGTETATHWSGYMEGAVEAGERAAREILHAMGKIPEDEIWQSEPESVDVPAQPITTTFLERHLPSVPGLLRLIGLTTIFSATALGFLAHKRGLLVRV
Description: Inhibition of human recombinant MAO-B expressed in baculovirus infected BTI cells by luminescence assay

Cytochrome P450 2C19 = Cytochrome P450 2C19 (Homo sapiens, UniProt P33261); assay: Inhibition of CYP2C19 in human liver microsomes; assay type: ADME, Microsome
[3] = target: T3, Amine oxidase [flavin-containing] A (Homo sapiens, UniProt P21397); assay: biochemical
T3 sequence (P21397 whole entry): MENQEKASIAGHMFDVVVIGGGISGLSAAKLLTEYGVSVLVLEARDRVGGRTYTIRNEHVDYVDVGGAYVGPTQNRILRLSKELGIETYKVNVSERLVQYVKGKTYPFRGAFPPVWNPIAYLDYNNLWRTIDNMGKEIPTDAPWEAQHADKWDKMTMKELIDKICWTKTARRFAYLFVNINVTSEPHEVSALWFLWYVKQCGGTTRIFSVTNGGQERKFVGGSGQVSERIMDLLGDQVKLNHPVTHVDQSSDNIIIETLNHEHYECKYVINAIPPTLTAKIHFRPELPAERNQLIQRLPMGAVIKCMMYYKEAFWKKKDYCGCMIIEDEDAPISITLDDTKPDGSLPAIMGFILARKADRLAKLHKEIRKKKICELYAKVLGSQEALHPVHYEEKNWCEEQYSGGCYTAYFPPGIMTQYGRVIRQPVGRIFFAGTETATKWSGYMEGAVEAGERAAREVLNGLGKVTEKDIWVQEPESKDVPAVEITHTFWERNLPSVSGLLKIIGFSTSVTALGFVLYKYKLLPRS
Description: Inhibition of human recombinant MAO-A expressed in baculovirus infected BTI cells by luminescence assay

Cytochrome P450 1A2 = target: T4, Cytochrome P450 1A2 (Homo sapiens, UniProt P05177); assay: Inhibition of CYP1A2 in human liver microsomes; assay type: ADME, Microsome
T4 sequence (P05177 whole entry): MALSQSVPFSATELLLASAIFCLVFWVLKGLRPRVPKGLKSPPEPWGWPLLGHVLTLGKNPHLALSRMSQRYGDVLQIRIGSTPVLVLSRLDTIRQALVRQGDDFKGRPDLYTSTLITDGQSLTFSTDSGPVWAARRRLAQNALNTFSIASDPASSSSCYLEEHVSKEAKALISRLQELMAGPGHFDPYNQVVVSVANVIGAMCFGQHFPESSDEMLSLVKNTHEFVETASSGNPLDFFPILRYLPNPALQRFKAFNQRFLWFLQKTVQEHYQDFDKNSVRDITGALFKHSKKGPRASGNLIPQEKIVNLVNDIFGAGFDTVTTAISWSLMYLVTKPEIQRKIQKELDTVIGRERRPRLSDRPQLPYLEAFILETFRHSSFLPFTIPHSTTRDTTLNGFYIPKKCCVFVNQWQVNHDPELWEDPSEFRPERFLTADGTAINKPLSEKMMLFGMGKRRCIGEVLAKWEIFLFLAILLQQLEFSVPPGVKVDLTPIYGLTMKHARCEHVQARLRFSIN

Cytochrome P450 3A4 = Cytochrome P450 3A4 (Homo sapiens, UniProt P08684); assay: Inhibition of CYP3A4 in human liver microsomes; assay type: ADME, Microsome
MV4-11 [4] = assay: Antitumor activity against human MV4-11 cells xenografted in Nu/Nu female mouse model assessed as relative tumor volume at 20 mg/kg, po qd and measured on day 17 (reference value: 9.52+/-4.19); assay type: functional; details: time 17 day
NCI-H526 = assay: Antiproliferative activity against human NCI-H526 cells assessed as inhibition of cell growth incubated for 240 hrs by MTS assay; assay type: functional, cell-based; details: NCI-H526, 240 h
MV4-11 [5] = assay: Antitumor activity against human MV4-11 cells xenografted in Nu/Nu female mouse model assessed as tumor growth inhibition at 20 mg/kg, po qd and measured on day 17 relative to control; assay type: functional; details: MV4-11, 408 h, time 17 day, read-out: TGI
[6] = Upregulation of CD86 mRNA expression level in human MV4-11 cells measured after 24 hrs by RT-qPCR analysis; assay type: functional, cell-based; details: MV4-11, 24 h
Kasumi 1 = assay: Antiproliferative activity against human Kasumi 1 cells assessed as inhibition of cell growth incubated for 240 hrs by MTS assay; assay type: functional, cell-based; details: Kasumi 1, 240 h
MV4-11 [7] = assay: Antitumor activity against human MV4-11 cells xenografted in Nu/Nu female mouse model assessed as reduction in tumor volume at 20 mg/kg, po qd and measured on day 17 (reference value: 1187+/-508 mm3); assay type: functional; details: time 17 day
MV4-11 [8] = assay: Antitumor activity against human MV4-11 cells xenografted in Nu/Nu female mouse model assessed as relative tumor growth rate at 20 mg/kg, po qd and measured on day 17 relative to control; assay type: functional; details: time 17 day
MV4-11 [9] = assay: Antitumor activity against human MV4-11 cells xenografted in Nu/Nu female mouse model assessed as reduction in tumor volume at 20 mg/kg, po qd measured immediately (reference value: 131+/-53 mm3); assay type: functional
MV4-11 [10] = assay: Antitumor activity against human MV4-11 cells xenografted in Nu/Nu female mouse model assessed as tumor growth inhibition at 20 mg/kg, sc administered 5 days per week and measured on day 17 relative to control; assay type: functional; details: MV4-11, 408 h, time 17 day, read-out: TGI
MV4-11 [11] = assay: Antitumor activity against human MV4-11 cells xenografted in Nu/Nu female mouse model assessed as relative tumor volume at 20 mg/kg, sc administered 5 days per week and measured on day 17 (reference value: 9.52+/-4.19); assay type: functional; details: time 17 day
MV4-11 [12] = assay: Antitumor activity against human MV4-11 cells xenografted in Nu/Nu female mouse model assessed as reduction in tumor volume at 20 mg/kg, sc measured immediately (reference value: 131+/-53 mm3); assay type: functional
MV4-11 [13] = assay: Antitumor activity against human MV4-11 cells xenografted in Nu/Nu female mouse model assessed as reduction in tumor volume at 20 mg/kg, sc administered 5 days per week and measured on day 17 (reference value: 1187+/-508 mm3); assay type: functional; details: time 17 day
MV4-11 [14] = assay: Antitumor activity against human MV4-11 cells xenografted in Nu/Nu female mouse model assessed as relative tumor growth rate at 20 mg/kg, sc administered 5 days per week and measured on day 17 relative to control; assay type: functional; details: time 17 day

Cytochrome P450 2D6, sequence (P10635 whole entry): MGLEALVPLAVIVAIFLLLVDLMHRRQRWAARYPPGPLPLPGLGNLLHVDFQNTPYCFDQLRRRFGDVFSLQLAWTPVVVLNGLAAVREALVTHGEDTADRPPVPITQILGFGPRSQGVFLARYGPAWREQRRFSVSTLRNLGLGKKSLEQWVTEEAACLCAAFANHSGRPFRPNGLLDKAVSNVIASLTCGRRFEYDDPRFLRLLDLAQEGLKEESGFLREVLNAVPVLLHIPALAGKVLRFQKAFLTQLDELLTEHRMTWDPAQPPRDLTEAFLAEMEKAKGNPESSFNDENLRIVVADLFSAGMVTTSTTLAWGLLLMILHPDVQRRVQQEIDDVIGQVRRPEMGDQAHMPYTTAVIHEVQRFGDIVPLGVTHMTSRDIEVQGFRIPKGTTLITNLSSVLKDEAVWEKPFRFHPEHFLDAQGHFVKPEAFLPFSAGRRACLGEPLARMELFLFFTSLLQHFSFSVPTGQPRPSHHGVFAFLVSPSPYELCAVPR
Cytochrome P450 2C19, sequence (P33261 whole entry): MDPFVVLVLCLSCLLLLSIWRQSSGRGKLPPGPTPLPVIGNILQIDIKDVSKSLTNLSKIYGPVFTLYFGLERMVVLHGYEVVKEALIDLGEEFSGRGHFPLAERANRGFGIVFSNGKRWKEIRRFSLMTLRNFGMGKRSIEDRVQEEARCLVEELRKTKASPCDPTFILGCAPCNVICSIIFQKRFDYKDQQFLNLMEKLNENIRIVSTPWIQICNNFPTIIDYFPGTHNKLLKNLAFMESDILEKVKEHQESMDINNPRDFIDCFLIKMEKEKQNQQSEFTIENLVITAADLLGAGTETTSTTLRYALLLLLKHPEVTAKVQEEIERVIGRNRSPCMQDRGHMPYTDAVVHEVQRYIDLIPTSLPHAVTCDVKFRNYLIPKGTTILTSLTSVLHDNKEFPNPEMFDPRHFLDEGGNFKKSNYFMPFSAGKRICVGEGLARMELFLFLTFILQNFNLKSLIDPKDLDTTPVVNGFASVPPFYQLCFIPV
Cytochrome P450 3A4, sequence (P08684 whole entry): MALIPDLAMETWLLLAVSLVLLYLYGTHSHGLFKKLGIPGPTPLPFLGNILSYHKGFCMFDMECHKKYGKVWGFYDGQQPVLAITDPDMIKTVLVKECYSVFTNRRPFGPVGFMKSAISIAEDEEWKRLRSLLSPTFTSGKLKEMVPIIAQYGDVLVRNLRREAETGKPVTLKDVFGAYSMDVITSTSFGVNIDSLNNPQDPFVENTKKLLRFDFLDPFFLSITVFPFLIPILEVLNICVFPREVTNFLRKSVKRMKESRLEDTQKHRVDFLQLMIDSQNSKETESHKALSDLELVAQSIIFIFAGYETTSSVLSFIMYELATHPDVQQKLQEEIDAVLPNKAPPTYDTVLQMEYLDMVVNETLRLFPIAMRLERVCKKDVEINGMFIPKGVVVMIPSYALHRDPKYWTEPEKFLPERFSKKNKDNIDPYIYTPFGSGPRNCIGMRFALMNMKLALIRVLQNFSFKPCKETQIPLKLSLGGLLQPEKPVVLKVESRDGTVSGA
Cytochrome P450 2C9, sequence (P11712 whole entry, the tested form may be a part): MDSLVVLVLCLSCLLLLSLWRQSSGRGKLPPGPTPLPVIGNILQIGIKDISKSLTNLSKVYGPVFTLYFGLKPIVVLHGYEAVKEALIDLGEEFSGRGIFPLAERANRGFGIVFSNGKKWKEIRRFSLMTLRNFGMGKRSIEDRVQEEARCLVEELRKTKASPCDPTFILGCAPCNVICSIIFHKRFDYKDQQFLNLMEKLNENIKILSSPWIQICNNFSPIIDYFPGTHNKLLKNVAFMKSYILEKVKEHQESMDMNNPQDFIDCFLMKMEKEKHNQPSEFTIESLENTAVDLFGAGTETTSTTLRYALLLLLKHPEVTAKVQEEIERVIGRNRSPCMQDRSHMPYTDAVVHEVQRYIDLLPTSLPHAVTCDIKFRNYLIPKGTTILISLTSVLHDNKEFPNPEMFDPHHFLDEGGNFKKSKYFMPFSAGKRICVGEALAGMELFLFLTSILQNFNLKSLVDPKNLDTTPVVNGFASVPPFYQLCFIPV

Compound	IC50 (Cytochrome P450 2D6) [µM]	IC50 (Cytochrome P450 2C9) [µM]	IC50 [1] [µM]	IC50 [2] [µM]	IC50 (Cytochrome P450 2C19) [µM]	IC50 [3] [µM]	IC50 (Cytochrome P450 1A2) [µM]	IC50 (Cytochrome P450 3A4; read-out: IC50) [µM]	also measured
Cc1cc(-c2ncc3c(cc(CN4CC[C@H](N)C4)n3C(C)C)c2-c2ccc(C#N)c(F)c2)cc(C)c1C	> 50	30	> 20	> 20	17.9	> 20	> 50	4.96	
COc1ccc(-c2c(-c3ccc(C#N)c(F)c3)nc(N3CCC(N)CC3)n(C)c2=O)cc1F [PULRODEMSTAT]									Activity (MV4-11 [4]): 3.75; IC50 (NCI-H526): 0.01 µM; inhibition in vivo at 20 mg/kg (MV4-11 [5]): 64.2%; EC50 [6]: 0.032 µM; IC50 (Kasumi 1): 0.003 µM; Activity (MV4-11 [7]): 554 mm3; Activity (MV4-11 [8]): 39.33%; Activity (MV4-11 [9]): 132 mm3
Cc1ccc(-c2ncc3c(cc(CN4CC[C@H](N)C4)n3C(C)C)c2-c2ccc(C#N)c(F)c2)cc1C	43.1	28.8	> 20	> 20	24.8	> 20	> 50	9.46	
Nc1ccn([C@@H]2O[C@H](CO)[C@@H](O)[C@@H]2O)c(=O)n1 [CYTARABINE]									inhibition in vivo at 20 mg/kg (MV4-11 [10]): 54.7%; Activity (MV4-11 [11]): 5.65; Activity (MV4-11 [12]): 131 mm3; Activity (MV4-11 [13]): 741 mm3; Activity (MV4-11 [14]): 59.36%
CCn1c(CN2CC[C@H](N)C2)cc2c(-c3ccc(C#N)c(F)c3)c(-c3cc(C)c(C)c(C)c3)ncc21			> 20	> 20		> 20			

Now from value to compound, other results behind:

IC50 (Cytochrome P450 2D6) [µM]	IC50 (Cytochrome P450 2C9) [µM]	IC50 [1] [µM]	IC50 [2] [µM]	IC50 (Cytochrome P450 2C19) [µM]	IC50 [3] [µM]	IC50 (Cytochrome P450 1A2) [µM]	IC50 (Cytochrome P450 3A4; read-out: IC50) [µM]	Compound	also measured
20.4	27.3	> 20	> 20	22	> 20	> 50	7.74	Cc1cc(C)c(-c2ncc3c(cc(CN4CC[C@H](N)C4)n3CC(F)(F)F)c2-c2ccc(C#N)c(F)c2)cc1C	
		> 20	> 20		> 20			Cc1cc(C)c(-c2ncc3c(cc(CN4CC[C@H](N)C4)n3CC(F)F)c2-c2ccc(C#N)c(F)c2)cc1C	
46.7	32.9	> 20	> 20		> 20	> 50		Cc1cc(C)c(-c2ncc3c(cc(CN4CC[C@H](N)C4)n3C(C)C)c2-c2ccc(C#N)c(F)c2)cc1C	IC50 (Cytochrome P450 3A4): 4.53 µM
		> 20	> 20		> 20			Cc1cc(C)c(-c2ncc3c(cc(CN4CC[C@H](N)C4)n3C)c2-c2ccc(C#N)c(F)c2)cc1C	
45.7	45.5	> 20	> 20	25.8	> 20	> 50	20.9	Cc1ccc(-c2ncc3c(cc(CN4CC[C@H](N)C4)n3CC(F)F)c2-c2ccc(C#N)c(F)c2)cc1C	
